# Reference: a melting point compilation (Tetko et al.; mined from patent text by program, amines drawn as free bases though some values may be those of a salt)
row,Compound,melting point [°C]
1,Cc1ccccc1C(=O)c1ccc(Nc2ccccc2NS(=O)(=O)c2ccccc2)cc1Cl,211 to 215
2,CCOC(=O)C(=CNc1c(C#N)cnn1-c1ccc(Cl)c(Cl)c1Cl)C(=O)OCC,157 to 158
3,Oc1cccc(C=C2c3ccc(Cl)cc3CCc3cccnc32)c1,221
4,Cc1ccccc1N1CCN(CCC2CN(C)C(=O)O2)CC1 (centres undefined),55 to 57
5,COc1cc(Cn2c(=O)n(C3CCCCC3)c3cc(Cl)ccc32)ccc1[N+](=O)[O-],176
6,CN1Cc2c(C=O)ncn2-c2cccc(Cl)c2C1=O,204 to 205
7,CC(=O)NC[C@H]1CN(c2ccc(C3CCN(C(=O)OC(C)(C)C)CC3)c(F)c2)C(=O)O1,144 to 146
8,CSc1cc(C)nc(SC)c1NC(=O)CSc1nc2cccc(C(F)(F)F)c2o1,207 to 209
9,O=C1N=c2ccc(NCCCc3ccccc3)cc2=N1,205 to 206
10,CCOC(=O)c1conc1-c1ccc(Cl)cc1,43 to 45
11,CC(C)(C)c1nc2cc(N3CCCCC3)c(N)cc2s1,172 to 175
12,CC(C)(C)c1ccc(C(=O)Nc2cn3cc(-c4cn[nH]c4)ccc3n2)cn1,238 to 240
13,COC1(c2cccc(S(=O)(=O)c3ccc4c(ccc(=O)n4C)c3)c2)CCOCC1,204 to 207
14,CCCc1cccc2c(/C=C(\C)C(=O)O)cc(OC)c(OC(C)=O)c12,207 to 208
15,COC(=O)C1CCCn2c(C(=O)c3ccc(F)cc3)ccc21 (centres undefined),78 to 79
16,O=C(O)c1cnccc1Cc1cc(Cl)ccc1F,174 to 176
17,CCN(CC)CC(=O)N1c2ccccc2N(C)S(=O)(=O)c2ccccc21,161 to 162
18,CS(=O)(=O)c1ccc(-c2cnn(CC(F)(F)F)c(=O)c2Sc2ccc(F)c(Cl)c2)cc1,142 to 145
19,Cc1ccc(N2CN(c3ccccc3)c3[nH]ncc3C2=O)cc1,260 to 262
20,Nc1ccc(-c2noc(-c3cnn4c(C(F)F)cc(-c5ccc(C(F)(F)F)c(F)c5)nc34)n2)cn1,242
21,COC(=O)C1(CCCN2CCN(c3ccccc3)CC2)Sc2ccccc2CCC1=O (centres undefined),101 to 103
22,C=C(C)C1CCC2(C(=O)O)CCC3(C)C(CCC4C5(C)CCC(O)C(C)(C)C5CCC43C)C12 (centres undefined),291 to 292
23,O=C(Nc1cccc(Cl)c1)c1cc2ccccc2s1,179
24,COC1=C(OC)C(=O)C2=C(CC(CCCCCCCCOc3ccc(Cl)cc3)C2)C1=O,64 to 66

row,Compound,melting point [°C]
1,CCCNC(=O)C(C)=Cc1ccc2[nH]cc(Cc3ccc(C(=O)OC)cc3OC)c2c1,55 to 60
2,COc1c(Cl)ccc(-c2cc(N)c(Cl)c(C(=O)OCc3ccccc3)n2)c1Cl,107 to 108
3,Cc1ccc(F)cc1C(=O)Nc1ccc(C(=O)N2Cc3cccn3Cc3ccccc32)cc1,170 to 180
4,CCCOc1ccccc1-c1nc(O)cc(C#N)n1,135 to 136
5,Cc1ccc(-c2ccc(-c3nnnn3CCCCCCc3cccnc3)cc2)cc1C,101 to 103
6,c1ccc2c(c1)SCCCN2N=C1CCNCC1,113 to 115
7,CC(C)(C)c1cc(Cn2c(=O)n(Cc3cc(C(C)(C)C)c(O)c(C(C)(C)C)c3)c(=O)n(Cc3cc(C(C)(C)C)c(O)c(C(C)(C)C)c3)c2=O)cc(C(C)(C)C)c1O,218 to 219
8,CCCC(CCC)c1ccc(COc2ccc(-c3csc(COc4cncc(C(=O)O)c4)n3)cc2)cc1,172 to 174
9,C[C@@H]1Cc2cc(N3C[C@H](C(N)=O)OC3=O)ccc2N1C=O,228 to 230
10,OCC1OC(n2cnc3c2ncn2ccnc32)CC1O (centres undefined),138 to 141
11,CCN(CCCc1c[nH]c2c(Cl)cccc12)C1COc2c(F)ccc(C(N)=O)c2C1 (centres undefined),146 to 152
12,CC(=O)c1ccc(C=C(C)c2ccc3c(c2)C(C)(C)CCO3)cc1,109 to 110
13,CCCC1=NN(c2ccc(C(=O)N(CC)CC)cc2)C(=O)C1=CNc1ccccc1CC,123
14,CC(=O)Oc1ccc2c(c1)Sc1cc(N(C)C)ccc1N2C(C)=O,124 to 128
15,CC(C)(C)OC(=O)C(Cc1c[nH]cn1)N(C(=O)OC(C)(C)C)C(=O)OC(C)(C)C (centres undefined),98
16,COc1cc2c(cc1F)C(=Cc1ccc(SC)cc1)C(C)=C2CC(=O)O,172 to 174
17,CCCOc1ccccc1-c1nc2c(C=CCc3ccccc3)cccc2c(=O)[nH]1,123 to 126
18,O=C1Nc2ccccc2N(C(=O)CNCCc2ccccc2)C2CCC(Cc3ccccc3)C12 (centres undefined),108 to 109
19,CC1(C)OC(=O)c2c(O)cc(OCc3ccccc3)cc2O1,80
20,CC(O)c1ccc(OCCCN2CCC(c3noc4cc(F)ccc34)CC2)c(O)c1 (centres undefined),142 to 144
21,O=C(O)c1ccc(-c2cccc(O)c2)cc1,180
22,CCCCc1nn(-c2cc(NC(=O)CC)ccc2Cl)c(C#N)c1Cc1ccc(-c2ccccc2S(=O)(=O)NC(=O)OC(C)(C)C)cc1F,> 95
23,O=C(CBr)c1ccc(S(=O)(=O)Cl)cc1,111
24,COc1ccc(C(=O)[C@H]2CC=CC[C@H]2C(=O)O)c2c1OC(C)(C)C2 (relative stereo),154 to 156

row,Compound,melting point [°C]
1,CCOc1c(C)c(C)c2c(c1C)CCC(C)(COc1ccc(N)cc1)O2 (centres undefined),121 to 123
2,CN(C)c1ncc2c(=O)n(CCc3ccccn3)sc2n1,134 to 136
3,Nc1cc(Cl)ccc1-c1noc(=O)[nH]1,159 to 161
4,Cn1c(-c2ccccc2)c(CCCl)sc1=O,88 to 90
5,Cn1nc(Oc2ccc([N+](=O)[O-])c([N+](=O)[O-])c2)c(Br)c1C(F)(F)F,152 to 153
6,N=C(N)c1ccc(NC(C(=O)O)c2ccccc2OCC(=O)O)cc1 (racemic),223
7,"CC(=O)Oc1cccc2c1C13CCN(C)C(C2)C1CCC(=O)C3 (single isomer, unassigned; (-))",96 to 97
8,Cc1ccc(S(=O)(=O)OC2CCc3c(c4ccccc4n3C)C2)cc1 (centres undefined),104 to 106
9,CCOC(=O)c1cc(Cl)c(-n2nc(CC)c(C#N)c2N)c(Cl)c1,173 to 175
10,Cc1ccnc(CCOc2ccc(NC(=O)N(C)C)cc2)c1,132 to 133
11,CCOC(=O)c1ccc(COCc2csc3nc(C(=O)NCc4ccccc4)[nH]c(=O)c23)cc1,229
12,COc1ccc(S(=O)(=O)C2(C(=O)O)CCN(Cc3ccc(C)cc3)CC2)cc1,176 to 177
13,COc1ccc(S(=O)(=O)N(C)C)c([N+](=O)[O-])c1,90 to 92
14,O=C(Nc1ccccc1)C(CS)Cc1ccccc1 (centres undefined),70
15,COc1ccc(-c2ccc(C(=O)O)cc2)cc1-c1cccc([N+](=O)[O-])c1,270 to 274
16,Cn1c2ccc(OCc3ccccc3)cc2c2c(CC(=O)N3CCCC3)nn(-c3ccccc3)c(=O)c21,203 to 204
17,CNC(=O)C1=CC(CF)(CF)Oc2ccc(C(F)(F)C(F)(F)F)cc21,127 to 128
18,CN1c2cc(Cl)ccc2-c2nc3ccc(Cl)cc3c3cccc1c23,273 to 275
19,CC(C)(C)n1ncc(C(=O)O)c1Cl,132 to 134
20,COc1cccc(OC)c1-c1cc(C(=O)NC2(C(=O)O)C3CC4CC(C3)CC2C4)nn1-c1ccc(NC(=O)CCN2CCCCC2)cc1C (centres undefined),240
21,CC(C)(C)c1cc(CN(c2cccnc2)S(=O)(=O)c2ccccc2Br)cc(C(C)(C)C)c1O,105 to 107
22,CNc1c(NCCSCc2csc(CN(C)C)n2)c(=O)c1=O,163 to 167
23,CC(C)S(=O)(=O)c1cc(O)c(N)c(C#N)c1,166 to 167
24,COC(=O)[C@@H](C)c1ccc2c(Br)c(OC)ccc2c1,94 to 95

row,Compound,melting point [°C]
1,CN(C)c1cc(-c2ccnc(Nc3cccc(Cl)c3)n2)ccn1,176 to 178
2,CN(C)C1(c2ccccc2)CCC(c2cccs2)(c2[nH]c3ccccc3c2CCc2ccncc2)CC1 (centres undefined),54 to 60
3,CC(c1ccc2ncccc2c1)n1nnc2ccc(-c3cnn(CCO)c3)nc21 (centres undefined),188 to 191
4,COc1ccc2c(c1)C(=O)N(c1ccc(C(C)C)cn1)C2,109 to 110
5,Cc1cc(Oc2ccc(-c3ccn(CC4CC4)c(=O)c3C#N)cc2F)cc(C)n1,201
6,CSc1c(C)c(-c2cc(OS(=O)(=O)C(F)(F)F)c(Cl)cc2F)nn1C,54 to 56
7,C=CCC(O)c1c(-c2ccc(F)cc2)nc(N(C)S(C)(=O)=O)nc1C(C)C (centres undefined),126
8,O=C(c1ccc([N+](=O)[O-])cc1)N1CCCCc2sccc21,141 to 142
9,COC(=O)C1(NC(=O)Cc2cc(-c3ccc(Cl)cc3)ccc2C)CCCC(C(F)(F)F)C1 (centres undefined),149
10,O=C(Cc1c(-c2ccccc2)c2cc(CSc3ccccn3)c(Cl)cc2oc1=O)Nc1ccc(F)cc1C(F)(F)F,195 to 196
11,CN1CCCCc2cc(Nc3ncc(Cl)c(Nc4ccccc4NS(C)(=O)=O)n3)ccc21,170 to 172
12,CN1C(=O)C(NC(=O)Nc2ccc(Cl)c(Cl)c2)N=C(c2ccccc2)c2ccccc21 (centres undefined),274 to 276
13,O=C1COc2ccc3c(c2N1)C(=O)CC3,136 to 139
14,C#Cc1cnc2sc(S(=O)(=O)CCCCCCC)nn2c1=O,180 to 182
15,CN(C)c1ccc(CC(CS)C(=O)Nc2cccc(C(=O)O)c2)cc1 (centres undefined),91 to 93
16,O[C@H]1CC[C@H](Nc2nccc(-c3n[nH]c4c(C(F)(F)F)cccc34)n2)CC1,266 to 270
17,CCOc1cnccc1C#N,56 to 57
18,Cc1cccc(C(=O)O)c1N(C)S(=O)(=O)c1ccc(OCCCCNC(=O)c2cc3ccccc3o2)cc1,> 200
19,CCOC(=O)c1ccc(-c2nc(COc3ccc(COc4nn(-c5ccccc5)cc4/C=C\c4csc(CC)n4)cc3OC)c(C)o2)o1,133 to 135
20,CC(=O)C1CCC2C3CCC4CC(C(C(=O)O)C(=O)O)CCC4(C)C3CCC12C (centres undefined),214 to 215
21,O=c1ccc2c(C(F)(F)F)cc(C(F)(F)F)nc2[nH]1,182 to 184
22,CC(C)n1c(CC[C@@H]2C[C@H](CC(=O)OC(C)(C)C)OC(C)(C)O2)c(-c2ccc(F)cc2)c(-c2ccccc2)c1C(N)=O,201 to 202
